# In ChEMBL document CHEMBL3785015, “Phenobarbital pharmacokinetics and bioavailability in adults” (J Clin Pharmacol, 1982):
# How the values were obtained:
# [1] = Tmax in healthy human subjects (6 subjects) at 2.9 mg/kg, po by HPLC method; type: ADME, organism-based; details: in vivo
# [2] = Corrected oral bioavailability in healthy human subjects (6 subjects) at 2.9 mg/kg by HPLC method; type: ADME, organism-based; details: in vivo
# [3] = Tmax in human; type: ADME, organism-based; details: in vivo
# [4] = Drug dissolution in acid medium after 90 mins; type: physicochemical; details: 1.5 h
# [5] = Terminal half life in healthy human subjects (6 subjects) at 2.6 mg/kg, iv by HPLC method; type: ADME, organism-based; details: in vivo, read-out: beta t1/2 (converted)
# [6] = Elimination half life in healthy human subjects (6 subjects) at 2.9 mg/kg, po measured during oral dose (period-3) by HPLC method; type: ADME, organism-based; details: in vivo, read-out: beta t1/2 (converted)
# [7] = Oral bioavailability in healthy human subjects (6 subjects) at 2.9 mg/kg by HPLC method; type: ADME, organism-based; details: in vivo
# [8] = Disposition rate constant at terminal phase in healthy human subjects (6 subjects) at 2.9 mg/kg, po by HPLC method; type: ADME, organism-based; details: in vivo
# Homo sapiens [9] = assay: Disposition rate constant at distribution phase in healthy human subjects (6 subjects) at 2.6 mg/kg, iv by HPLC method; type: ADME, organism-based; details: in vivo
# [10] = Elimination half life in healthy human subjects (6 subjects) measured during alkaline diuresis dose (period-2) by HPLC method; type: ADME, organism-based; details: in vivo, read-out: beta t1/2 (converted)
# [11] = Drug dissolution in 0.1N HCl measured during 15 mins; type: physicochemical; details: buffer, 0.25 h
# Homo sapiens [12] = assay: Distribution half life in healthy human subjects (6 subjects) at 2.6 mg/kg, iv by HPLC method; type: ADME, organism-based; details: in vivo
# [13] = Cmax in healthy human subjects (6 subjects) at 2.9 mg/kg, po by HPLC method; type: ADME, organism-based; design: dose 2.9 mg/kg, route oral; details: in vivo
# [14] = Tmax in adult human; type: ADME, organism-based; details: in vivo
# [15] = Terminal half life in healthy human subjects (6 subjects) at 2.9 mg/kg, po by HPLC method; type: ADME, organism-based; details: in vivo, read-out: beta t1/2 (converted)
# [16] = Disposition rate constant at terminal phase in healthy human subjects (6 subjects) at 2.6 mg/kg, iv by HPLC method; type: ADME, organism-based; details: in vivo
# [17] = Total body clearance in healthy human subjects (6 subjects) at 2.6 mg/kg, iv by HPLC method; type: ADME, organism-based; details: in vivo
# [18] = Apparent volume of distribution in healthy human subjects (6 subjects) at 2.6 mg/kg, iv by HPLC method; type: ADME, organism-based; details: in vivo, read-out: Vd(app)
# [19] = Drug dissolution in aqueous medium after 90 mins; type: physicochemical; details: buffer, 1.5 h
# [20] = Oral bioavailability in human subjects receiving phenobarbital tablets after having received phenobarbital infusion for […] withdrawal; type: ADME, organism-based; details: in vivo
# [21] = Renal clearance in healthy human subjects (6 subjects) at 2.6 mg/kg, iv by HPLC method; type: ADME, organism-based, Kidney; details: in vivo
# [22] = Drug dissolution in water measured during 15 mins; type: physicochemical; details: buffer, 0.25 h
# [23] = Elimination half life in healthy human subjects (6 subjects) at 2.6 mg/kg, iv measured during intravenous control dose (period-1) by HPLC method; type: ADME, organism-based; details: in vivo, read-out: beta t1/2 (converted)
structure (smiles),measurement,setting,value
CCC1(c2ccccc2)C(=O)NC(=O)NC1=O [PHENOBARBITAL],Tmax,[1],2.3 h
same,bioavailability,[2],94.9%
same,Tmax,[3],≤ 18 h
same,Drug dissolution,[4],61.3%
same,half-life,[5],139 h
same,half-life,[6],149 h
same,bioavailability,[7],83.4%
same,k el,[8],1.58e-06 s⁻¹
same,K,Homo sapiens [9],3.8 h⁻¹
same,half-life,[10],128 h
same,Drug dissolution,[11],81.5%
same,alphat1/2,Homo sapiens [12],0.18 h
same,Cmax,[13],5500 ng/mL
same,Tmax,[14],50 h
same,half-life,[15],122 h
same,k el,[16],1.39e-06 s⁻¹
same,clearance,[17],3 mL/h/kg
same,Vd,[18],0.6 L/kg
same,Drug dissolution,[19],86%
same,bioavailability,[20],100%
same,CL renal,[21],0.8 mL/h/kg
same,Drug dissolution,[22],80%
same,half-life,[23],147 h
